Measured values published in ChEMBL document CHEMBL5154907, “Discovery and Anti-Inflammatory Activity Evaluation of a Novel CDK8 Inhibitor through Upregulation of IL-10 for the Treatment of Inflammatory Bowel Disease In Vivo” (J Med Chem, 2022).

Tests used:
[1] = target: CDK8/Cyclin C (Homo sapiens) (UniProt P49336+P24863); assay: Inhibition of recombinant full length His tagged human CDK8/Cyclin C expressed in Baculovirus at 200 nM incubated for 60 mins in presence of ATP by ADP-Glo kinase assay
[2] = test system: BMDC; assay: Anti-inflammatory activity against R848-stimulated mouse BMDC cells assessed as upregulation of IL-10 production at 5 uM treated for 24 hrs followed by R848 stimulation for 12 hrs by ELISA method (reference value: 100 %); type: functional; details: time 36 hrs
[3] = target: CDK8/Cyclin C (Homo sapiens, UniProt P49336); assay: Inhibition of recombinant full length His tagged human CDK8/Cyclin C expressed in Baculovirus incubated for 60 mins in presence of ATP by ADP-Glo kinase assay
[4] = Stability of compound in human liver microsome assessed as intrinsic clearance by HPLC analysis; type: ADME; details: liver microsomes, read-out: CLH
[5] = Transcriptional activity of AP-1 in R848-stimulated mouse BMDC cells transfected with pAP1-luc assessed as ratio of AP-1 activity at 5 uM treated for 24 hrs followed by R848 stimulation for 4 hrs by luminescence based microplate reader analysis relative to control; type: functional; details: time 28 hrs

Chain of CDK8/Cyclin C (P49336 whole entry): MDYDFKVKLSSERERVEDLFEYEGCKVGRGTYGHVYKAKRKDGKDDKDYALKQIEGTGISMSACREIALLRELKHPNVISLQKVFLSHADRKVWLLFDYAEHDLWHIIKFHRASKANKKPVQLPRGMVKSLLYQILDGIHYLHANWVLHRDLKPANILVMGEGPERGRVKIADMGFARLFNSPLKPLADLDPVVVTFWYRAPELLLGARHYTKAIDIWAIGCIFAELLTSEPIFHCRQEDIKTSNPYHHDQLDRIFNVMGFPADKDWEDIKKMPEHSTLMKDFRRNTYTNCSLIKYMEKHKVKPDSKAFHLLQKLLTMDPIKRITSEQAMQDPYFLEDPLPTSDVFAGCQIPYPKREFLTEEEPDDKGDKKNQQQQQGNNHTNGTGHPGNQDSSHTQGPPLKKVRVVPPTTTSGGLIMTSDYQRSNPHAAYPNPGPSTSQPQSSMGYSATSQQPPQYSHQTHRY
Chain of CDK8/Cyclin C (P24863 whole entry, further chain): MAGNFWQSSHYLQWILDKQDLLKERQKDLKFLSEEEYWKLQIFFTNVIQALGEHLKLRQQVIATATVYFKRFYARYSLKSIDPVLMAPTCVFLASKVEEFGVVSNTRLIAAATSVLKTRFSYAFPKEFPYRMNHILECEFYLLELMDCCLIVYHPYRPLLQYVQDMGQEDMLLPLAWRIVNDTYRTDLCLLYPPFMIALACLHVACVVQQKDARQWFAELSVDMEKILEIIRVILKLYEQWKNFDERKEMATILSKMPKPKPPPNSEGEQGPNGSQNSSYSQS

| Compound | inhibition [1] | Activity [2] | IC50 [3] | microsomal CLint [4] | Ratio [5] |
| --- | --- | --- | --- | --- | --- |
| O=c1cc(-c2ccccc2)oc2cc(-c3ccc(CN4CCNCC4)cc3)cc(O)c12 | 69% | 33% | 144 nM | 15.9 µL/min/mg | 1.9 |
| O=c1cc(-c2ccccc2)oc2cc(-c3ccncc3)cc(O)c12 | 24% | 73% | – | – | 1.2 |
| O=C(c1ccc(-c2cc(O)c3c(=O)cc(-c4ccccc4)oc3c2)cc1)N1CCNCC1 | 75% | 43% | 72 nM | 12.9 µL/min/mg | 2.4 |
| O=C(Nc1ccc(Cl)cc1)c1cncc(-c2ccc(C(=O)N3CCNCC3)cc2)c1 | 20% | 33% | 1470 nM | – | 1.55 |
| Cc1cccc(NC(=O)c2cncc(-c3ccc(C(=O)N4CCNCC4)cc3)c2)c1 | 76% | 62% | 75 nM | – | 1.6 |
| Nc1ccc(NC(=O)c2cncc(-c3ccc(C(=O)N4CCNCC4)cc3)c2)cc1 | 34% | 30% | 3650 nM | – | 1.72 |
| CC1CCc2nc(N)c(C#N)c(-c3cccnc3)c2C1 (configuration not stated) | – | 66% | 211 nM | – | 2.5 |
| CCc1ccc(NC(=O)c2cncc(-c3ccc(C(=O)N4CCNCC4)cc3)c2)cc1 | 71% | 40% | 96 nM | – | 1.9 |
| Nc1ccccc1NC(=O)c1cncc(-c2ccc(C(=O)N3CCNCC3)cc2)c1 | 27% | 24% | 947 nM | – | 1.63 |
| CC(=O)Nc1ccc(NC(=O)c2cncc(-c3ccc(C(=O)N4CCNCC4)cc3)c2)cc1 | 35% | 37% | 1050 nM | – | 1.1 |
| O=C(Nc1ccccc1)c1cc(-c2ccc(C(=O)N3CCNCC3)cc2)ccn1 | 78% | 72% | 87 nM | 10.4 µL/min/mg | 2.3 |
| Nc1ccc(-c2cc(O)c3c(=O)cc(-c4ccccc4)oc3c2)cc1 | 64% | 21% | 112 nM | – | 2.6 |
| O=C(Nc1ccccc1)c1cc(-c2ccc(C(=O)N3CCNCC3)cc2)ccc1O | 54% | 40% | 210 nM | – | 1.2 |
| COc1c(O)cc(O)c2c(=O)cc(-c3ccccc3)oc12 [WOGONIN] | – | 65% | 5900 nM | 11.3 µL/min/mg | 1.4 |
| O=C(Nc1ccccc1)c1cncc(-c2ccc(C(=O)N3CCNCC3)cc2)c1 | 79% | 76% | 80 nM | 7.3 µL/min/mg | 2.8 |
| Nc1ncc(-c2ccc(C(=O)N3CCNCC3)cc2)cc1C(=O)Nc1ccccc1 | 62% | 61% | 134 nM | – | 2.7 |
| COc1cccc(NC(=O)c2cncc(-c3ccc(C(=O)N4CCNCC4)cc3)c2)c1 | 80% | 65% | 65 nM | 7 µL/min/mg | 2 |
| O=c1cc(-c2ccccc2)oc2cc(-c3ccccc3)cc(O)c12 | 46% | – | 234 nM | 10.9 µL/min/mg | 1.5 |
| CCc1cccc(NC(=O)c2cncc(-c3ccc(C(=O)N4CCNCC4)cc3)c2)c1 | 73% | 34% | 104 nM | – | 1.7 |
| CC(=O)Nc1cccc(NC(=O)c2cncc(-c3ccc(C(=O)N4CCNCC4)cc3)c2)c1 | 65% | 78% | 134 nM | – | – |
| Cc1ccc(-c2cc(O)c3c(=O)cc(-c4ccccc4)oc3c2)cc1 | 62% | 83% | 155 nM | – | 2.6 |
| O=c1cc(-c2ccccc2)oc2cc(-c3ccc(C(F)(F)F)cc3)cc(O)c12 | 28% | – | 2110 nM | – | 1.4 |
| O=C(Nc1cccc(C(F)(F)F)c1)c1cncc(-c2ccc(C(=O)N3CCNCC3)cc2)c1 | 24% | 42% | 1140 nM | – | 1.41 |

| Compound | inhibition [1] | Activity [2] | IC50 [3] | microsomal CLint [4] | Ratio [5] |
| --- | --- | --- | --- | --- | --- |
| O=C(Nc1ccccc1)c1cccc(-c2ccc(C(=O)N3CCNCC3)cc2)c1 | 67% | – | 162 nM | – | 1.7 |
| CN1CCN(c2ccc(-c3cc(O)c4c(=O)cc(-c5ccccc5)oc4c3)cc2)CC1 | 42% | 53% | – | – | 1.4 |
| COc1ccc(NC(=O)c2cncc(-c3ccc(C(=O)N4CCNCC4)cc3)c2)cc1 | 77% | 74% | 81 nM | – | 1.7 |
| CC(=O)Nc1ccc(NC(=O)c2cc(O)cc(-c3ccc(C(=O)N4CCNCC4)cc3)c2)cc1 | 45% | 30% | – | – | – |
| CCN1CCN(c2ccc(-c3cc(O)c4c(=O)cc(-c5ccccc5)oc4c3)cc2)CC1 | 29% | 40% | – | – | – |
| Nc1ncc(C(=O)Nc2ccccc2)cc1-c1ccc(C(=O)N2CCNCC2)cc1 | 44% | 56% | 260 nM | – | 1.7 |
| COc1ccccc1NC(=O)c1cncc(-c2ccc(C(=O)N3CCNCC3)cc2)c1 | 60% | 62% | – | – | – |
| CC(C)(C)c1ccc(NC(=O)c2cncc(-c3ccc(C(=O)N4CCNCC4)cc3)c2)cc1 | 54% | 63% | – | – | – |
| O=c1cc(-c2ccccc2)oc2cc(-c3ccc(N4CCOCC4)cc3)cc(O)c12 | 19% | 23% | – | – | – |
| O=C(Nc1ccccc1)c1ccc(O)c(-c2ccc(C(=O)N3CCNCC3)cc2)c1 | 57% | 26% | 214 nM | – | 1.2 |
| COc1cc(OC)c(-c2cc(O)c3c(=O)cc(-c4ccccc4)oc3c2)c(OC)c1 | 56% | – | 205 nM | – | – |
| CN(C)c1ccc(-c2cc(O)c3c(=O)cc(-c4ccccc4)oc3c2)cc1 | 62% | – | 177 nM | – | 1.4 |
| O=C(NCc1ccoc1)c1cncc(-c2ccc(C(=O)N3CCNCC3)cc2)c1 | 61% | 60% | – | – | – |
| CCCN1CCN(C(=O)c2ccc(-c3cc(O)c4c(=O)cc(-c5ccccc5)oc4c3)cc2)CC1 | 29% | 53% | – | – | – |
| CC(C)c1ccccc1NC(=O)c1cncc(-c2ccc(C(=O)N3CCNCC3)cc2)c1 | 58% | 78% | – | – | – |
| CN1CCN(Cc2ccc(-c3cc(O)c4c(=O)cc(-c5ccccc5)oc4c3)cc2)CC1 | 25% | 36% | – | – | 1.1 |
| COc1ccc(NC(=O)c2cc(O)cc(-c3ccc(C(=O)N4CCNCC4)cc3)c2)cc1 | 61% | 56% | – | – | – |
| O=C(Nc1ccc(OC(F)(F)F)cc1)c1cc(O)cc(-c2ccc(C(=O)N3CCNCC3)cc2)c1 | 5% | 88% | – | – | – |
| CC(C)c1ccc(NC(=O)c2cncc(-c3ccc(C(=O)N4CCNCC4)cc3)c2)cc1 | 62% | 61% | – | – | – |
| O=C(Nc1ccccc1F)c1cc(O)cc(-c2ccc(C(=O)N3CCNCC3)cc2)c1 | 19% | 42% | – | – | – |
| O=C(Nc1ccc(C(F)(F)F)cc1)c1cc(O)cc(-c2ccc(C(=O)N3CCNCC3)cc2)c1 | 40% | 8% | – | – | – |
| O=c1cc(-c2ccccc2)oc2cc(-c3cncnc3)cc(O)c12 | 35% | – | 548 nM | – | – |
